Results published in the NIST ThermoML archive (doi:10.1016/j.jct.2011.11.025).
± gives the expanded uncertainty stated by the source.

Assay: activity coefficient (dimensionless); of the first substance listed, at infinite dilution; xn = mol fraction of the nth substance listed
Conditions: Liquid, Chromatography, x1 = 0

SMILES | activity coefficient (318.15 K) | activity coefficient (328.15 K) | activity coefficient (338.15 K) | activity coefficient (348.15 K) | activity coefficient (358.15 K) | activity coefficient (368.15 K)
CCC(C)O (centres undefined) [butan-2-ol] + CCCCCCn1cc[n+](C)c1.N#C[B-](C#N)(C#N)C#N | 1.27 ± 0.04 | 1.17 ± 0.04 | 1.1 ± 0.1 | 1.03 ± 0.03 | 0.977 ± 0.025 | 0.938 ± 0.026
CCC(C)CC [3-methylpentane] + CCCCCCn1cc[n+](C)c1.N#C[B-](C#N)(C#N)C#N | 10.5 ± 0.5 | 9.96 ± 0.46 | 9.5 ± 0.44 | 9.15 ± 0.42 | 8.81 ± 0.4 | 8.6 ± 0.39
C=CCCCCC [1-heptene] + CCCCCCn1cc[n+](C)c1.N#C[B-](C#N)(C#N)C#N | 8.39 ± 0.38 | 8.06 ± 0.37 | 7.79 ± 0.36 | 7.59 ± 0.35 | 7.37 ± 0.34 | 7.24 ± 0.33
CCCCCCCCCC [decane] + CCCCCCn1cc[n+](C)c1.N#C[B-](C#N)(C#N)C#N | 43.6 ± 2 | 40 ± 1.9 | 36.4 ± 1.7 | 33.8 ± 1.6 | 31.3 ± 1.5 | 29.3 ± 1.4
C1COCCO1 [1,4-dioxane] + CCCCCCn1cc[n+](C)c1.N#C[B-](C#N)(C#N)C#N | 0.362 ± 0.035 | 0.381 ± 0.034 | 0.401 ± 0.034 | 0.419 ± 0.034 | 0.435 ± 0.033 | 0.454 ± 0.033
CC1CCCCC1 [methylcyclohexane] + CCCCCCn1cc[n+](C)c1.N#C[B-](C#N)(C#N)C#N | 8.87 ± 0.41 | 8.35 ± 0.38 | 7.87 ± 0.36 | 7.58 ± 0.35 | 7.24 ± 0.33 | 7 ± 0.32
CCC(C)(C)C [2,2-dimethylbutane] + CCCCCCn1cc[n+](C)c1.N#C[B-](C#N)(C#N)C#N | 10.5 ± 0.5 | 9.96 ± 0.46 | 9.52 ± 0.44 | 9.24 ± 0.42 | 8.92 ± 0.41 | 8.69 ± 0.4
CCC(C)(C)OC [2-methoxy-2-methylbutane] + CCCCCCn1cc[n+](C)c1.N#C[B-](C#N)(C#N)C#N | 2.19 ± 0.1 | 2.24 ± 0.1 | 2.27 ± 0.1 | 2.33 ± 0.11 | 2.36 ± 0.11 | 2.42 ± 0.11
CC(C)=O [acetone] + CCCCCCn1cc[n+](C)c1.N#C[B-](C#N)(C#N)C#N | 0.335 ± 0.035 | 0.344 ± 0.035 | 0.354 ± 0.035 | 0.363 ± 0.035 | 0.372 ± 0.034 | 0.381 ± 0.034
CCC(=O)OC [methyl propanoate] + CCCCCCn1cc[n+](C)c1.N#C[B-](C#N)(C#N)C#N | 0.609 ± 0.031 | 0.628 ± 0.031 | 0.648 ± 0.03 | 0.668 ± 0.03 | 0.685 ± 0.03 | 0.705 ± 0.029
C=CCCCCCCCC [1-decene] + CCCCCCn1cc[n+](C)c1.N#C[B-](C#N)(C#N)C#N | 21.5 ± 1 | 20.5 ± 0.9 | 19.3 ± 0.9 | 18.5 ± 0.9 | 17.6 ± 0.8 | 16.9 ± 0.8
CCCC(=O)OC [methyl butanoate] + CCCCCCn1cc[n+](C)c1.N#C[B-](C#N)(C#N)C#N | 0.664 ± 0.03 | 0.684 ± 0.03 | 0.701 ± 0.029 | 0.715 ± 0.029 | 0.733 ± 0.029 | 0.751 ± 0.029
C#CCCCCCC [1-octyne] + CCCCCCn1cc[n+](C)c1.N#C[B-](C#N)(C#N)C#N | 3.99 ± 0.18 | 3.97 ± 0.18 | 3.96 ± 0.18 | 3.98 ± 0.18 | 3.97 ± 0.18 | 3.99 ± 0.18
C1CCCCC1 [cyclohexane] + CCCCCCn1cc[n+](C)c1.N#C[B-](C#N)(C#N)C#N | 6.52 ± 0.3 | 6.15 ± 0.28 | 5.85 ± 0.27 | 5.58 ± 0.26 | 5.38 ± 0.25 | 5.21 ± 0.24
c1ccsc1 [thiophene] + CCCCCCn1cc[n+](C)c1.N#C[B-](C#N)(C#N)C#N | 0.636 ± 0.03 | 0.647 ± 0.03 | 0.657 ± 0.03 | 0.666 ± 0.03 | 0.678 ± 0.03 | 0.689 ± 0.03
Cc1ccccc1 [toluene] + CCCCCCn1cc[n+](C)c1.N#C[B-](C#N)(C#N)C#N | 0.975 ± 0.025 | 0.993 ± 0.025 | 1.02 ± 0.03 | 1.04 ± 0.03 | 1.06 ± 0.03 | 1.08 ± 0.03
CCCCCCC [heptane] + CCCCCCn1cc[n+](C)c1.N#C[B-](C#N)(C#N)C#N | 16.5 ± 0.8 | 15.4 ± 0.7 | 14.5 ± 0.7 | 13.7 ± 0.6 | 13 ± 0.6 | 12.4 ± 0.6
C#CCCCC [1-hexyne] + CCCCCCn1cc[n+](C)c1.N#C[B-](C#N)(C#N)C#N | 2.17 ± 0.1 | 2.19 ± 0.1 | 2.2 ± 0.1 | 2.24 ± 0.1 | 2.26 ± 0.1 | 2.3 ± 0.1

SMILES | activity coefficient (318.15 K) | activity coefficient (328.15 K) | activity coefficient (338.15 K) | activity coefficient (348.15 K) | activity coefficient (358.15 K) | activity coefficient (368.15 K)
CCCC(C)=O [pentan-2-one] + CCCCCCn1cc[n+](C)c1.N#C[B-](C#N)(C#N)C#N | 0.497 ± 0.033 | 0.513 ± 0.032 | 0.529 ± 0.032 | 0.544 ± 0.032 | 0.556 ± 0.032 | 0.572 ± 0.031
C1CCCC1 [cyclopentane] + CCCCCCn1cc[n+](C)c1.N#C[B-](C#N)(C#N)C#N | 4.65 ± 0.21 | 4.45 ± 0.2 | 4.28 ± 0.2 | 4.14 ± 0.19 | 4.02 ± 0.18 | 3.93 ± 0.18
C1CCCCCC1 [cycloheptane] + CCCCCCn1cc[n+](C)c1.N#C[B-](C#N)(C#N)C#N | 7.96 ± 0.37 | 7.46 ± 0.34 | 7.07 ± 0.32 | 6.76 ± 0.31 | 6.45 ± 0.3 | 6.21 ± 0.28
C1CCCCCCC1 [cyclooctane] + CCCCCCn1cc[n+](C)c1.N#C[B-](C#N)(C#N)C#N | 9.94 ± 0.46 | 9.29 ± 0.43 | 8.75 ± 0.4 | 8.33 ± 0.38 | 7.9 ± 0.36 | 7.57 ± 0.35
C1=CCCCC1 [cyclohexene] + CCCCCCn1cc[n+](C)c1.N#C[B-](C#N)(C#N)C#N | 3.48 ± 0.16 | 3.38 ± 0.15 | 3.27 ± 0.15 | 3.25 ± 0.15 | 3.17 ± 0.14 | 3.14 ± 0.14
CC(C)CC(C)(C)C [2,2,4-trimethylpentane] + CCCCCCn1cc[n+](C)c1.N#C[B-](C#N)(C#N)C#N | 18.8 ± 0.9 | 17.6 ± 0.8 | 16.5 ± 0.8 | 15.7 ± 0.7 | 15 ± 0.7 | 14.3 ± 0.7
C#CCCCCC [1-heptyne] + CCCCCCn1cc[n+](C)c1.N#C[B-](C#N)(C#N)C#N | 2.92 ± 0.13 | 2.93 ± 0.13 | 2.94 ± 0.13 | 2.98 ± 0.14 | 2.99 ± 0.14 | 3.02 ± 0.14
CCCOCCC [dipropyl ether] + CCCCCCn1cc[n+](C)c1.N#C[B-](C#N)(C#N)C#N | 3.82 ± 0.17 | 3.77 ± 0.17 | 3.73 ± 0.17 | 3.74 ± 0.17 | 3.72 ± 0.17 | 3.73 ± 0.17
C=Cc1ccccc1 [styrene] + CCCCCCn1cc[n+](C)c1.N#C[B-](C#N)(C#N)C#N |  | 0.83 ± 0.03 | 0.856 ± 0.027 | 0.878 ± 0.027 | 0.902 ± 0.026 | 0.926 ± 0.026
c1ccncc1 [pyridine] + CCCCCCn1cc[n+](C)c1.N#C[B-](C#N)(C#N)C#N | 0.38 ± 0.034 | 0.389 ± 0.034 | 0.4 ± 0.034 | 0.408 ± 0.034 | 0.418 ± 0.034 | 0.429 ± 0.034
CCCCCCCCC [nonane] + CCCCCCn1cc[n+](C)c1.N#C[B-](C#N)(C#N)C#N | 31.4 ± 1.5 | 28.8 ± 1.3 | 26.6 ± 1.2 | 24.9 ± 1.2 | 23.2 ± 1.1 | 21.9 ± 1
CC(C)CO [2-methyl-1-propanol] + CCCCCCn1cc[n+](C)c1.N#C[B-](C#N)(C#N)C#N | 1.44 ± 0.05 | 1.31 ± 0.05 | 1.2 ± 0.1 | 1.11 ± 0.03 | 1.04 ± 0.03 | 0.977 ± 0.025
Cc1cccc(C)c1 [1,3-dimethylbenzene] + CCCCCCn1cc[n+](C)c1.N#C[B-](C#N)(C#N)C#N | 1.36 ± 0.05 | 1.39 ± 0.05 | 1.42 ± 0.05 | 1.44 ± 0.05 | 1.47 ± 0.06 | 1.5 ± 0.06
CCCCCC [hexane] + CCCCCCn1cc[n+](C)c1.N#C[B-](C#N)(C#N)C#N | 11.8 ± 0.5 | 11.2 ± 0.5 | 10.6 ± 0.5 | 10.2 ± 0.5 | 9.79 ± 0.45 | 9.53 ± 0.44
CCOCC [diethyl ether] + CCCCCCn1cc[n+](C)c1.N#C[B-](C#N)(C#N)C#N | 1.59 ± 0.06 | 1.62 ± 0.07 | 1.64 ± 0.07 | 1.68 ± 0.07 | 1.71 ± 0.07 | 1.76 ± 0.07
C=CCCCCCC [oct-1-ene] + CCCCCCn1cc[n+](C)c1.N#C[B-](C#N)(C#N)C#N | 11.7 ± 0.5 | 11.1 ± 0.5 | 10.7 ± 0.5 | 10.3 ± 0.5 | 9.91 ± 0.46 | 9.64 ± 0.44
CCC(=O)CC [pentan-3-one] + CCCCCCn1cc[n+](C)c1.N#C[B-](C#N)(C#N)C#N | 0.478 ± 0.033 | 0.498 ± 0.033 | 0.518 ± 0.032 | 0.536 ± 0.032 | 0.551 ± 0.032 | 0.569 ± 0.031
